Experimental data published in ChEMBL document CHEMBL4350975, “Assessment of quinazolinone derivatives as novel non-nucleoside hepatitis B virus inhibitors” (Eur J Med Chem, 2019).

What was measured:
[1] = Cytotoxicity against human HepG2.2.15 cells assessed as cell viability measured after 72 hrs by MTT assay; format: cell-based, HepG2 2.2.15
[2] = molecular target: Core antigen (Hepatitis B virus) (UniProt Q03732); experiment: Inhibition of capsid protein in Hepatitis B virus infected in human HepG2.2.15 cells assessed as reduction in viral DNA level supplemented with fresh medium containing compound every 2 days and measured after 6 days by RT-PCR analysis relative to control; format: cell-based; parameters: concentration or dose not given beside the values; details: concentration not given here
[3] = Selectivity index, ratio of CC50 for human HepG2.2.15 cells to IC50 for capsid protein in Hepatitis B virus infected in human HepG2.2.15 cells assessed as reduction in viral DNA level; format: toxicity, cell-based; details: read-out: Ratio CC50/IC50
[4] = Selectivity index, ratio of CC50 for human HepG2.2.15 cells to IC50 for capsid protein in lamivudine/entecavir-resistant Hepatitis B virus harboring rtL180M/rtM204V/rt184L mutant infected in human HepG2.2.15 cells assessed as reduction in viral DNA level; format: toxicity, cell-based; details: read-out: Ratio CC50/IC50
[5] = molecular target: Core antigen (Hepatitis B virus) (UniProt Q03732); experiment: Inhibition of capsid protein in wild type Hepatitis B virus infected in human HepG2.2.15 cells assessed as reduction of viral DNA level at 4 uM measured after 72 hrs by PCR analysis relative to control; format: cell-based
[6] = molecular target: Core antigen (Hepatitis B virus) (UniProt Q03732); experiment: Inhibition of capsid protein in lamivudine/entecavir-resistant Hepatitis B virus harboring rtL180M/rtM204V/rt184L mutant infected in human HepG2.2.15 cells assessed as reduction in viral DNA level at 4 uM measured after 72 hrs by PCR analysis relative to control; format: cell-based
[7] = molecular target: Core antigen (Hepatitis B virus) (UniProt Q03732); experiment: Inhibition of capsid protein in wild type Hepatitis B virus infected in human HepG2.2.15 cells assessed as reduction of viral DNA level at 10 uM measured after 72 hrs by PCR analysis relative to control; format: cell-based
[8] = molecular target: Core antigen (Hepatitis B virus) (UniProt Q03732); experiment: Inhibition of capsid protein in lamivudine/entecavir-resistant Hepatitis B virus harboring rtL180M/rtM204V/rt184L mutant infected in human HepG2.2.15 cells assessed as reduction in viral DNA level at 10 uM measured after 72 hrs by PCR analysis relative to control; format: cell-based
[9] = molecular target: Core antigen (Hepatitis B virus) (UniProt Q03732); experiment: Inhibition of capsid protein in wild type Hepatitis B virus infected in human HepG2.2.15 cells assessed as reduction in viral DNA level at 100 uM measured after 72 hrs by PCR analysis relative to control; format: cell-based
[10] = molecular target: Core antigen (Hepatitis B virus) (UniProt Q03732); experiment: Inhibition of capsid protein in lamivudine/entecavir-resistant Hepatitis B virus harboring rtL180M/rtM204V/rt184L mutant infected in human HepG2.2.15 cells assessed as reduction in viral DNA level at 100 uM measured after 72 hrs by PCR analysis relative to control; format: cell-based

Chain of Core antigen (Hepatitis B virus) (Q03732 as listed by the source): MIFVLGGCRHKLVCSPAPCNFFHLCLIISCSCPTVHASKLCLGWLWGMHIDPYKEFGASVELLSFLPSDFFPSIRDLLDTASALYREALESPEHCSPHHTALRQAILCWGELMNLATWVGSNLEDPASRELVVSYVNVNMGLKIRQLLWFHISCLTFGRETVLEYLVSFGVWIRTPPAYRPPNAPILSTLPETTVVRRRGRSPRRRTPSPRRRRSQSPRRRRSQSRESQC

SMILES | CC50 at 72 h [1] | inhibition [2] | other results
COc1ccccc1CSc1nc2ccc(C)cc2c(=O)n1Cc1cccs1 | > 100 µM | 69.4% | 
COc1ccccc1CSc1nc2ccc(Br)cc2c(=O)n1Cc1cccs1 | > 100 µM | 64.2% | 
COc1ccc(C(C)=O)cc1CSc1nc2ccc(O)cc2c(=O)n1Cc1cccs1 | > 100 µM | 3.26% | 
COc1ccccc1CSc1nc2ccccc2c(=O)n1Cc1cccs1 | > 100 µM | 76.3% | selectivity ratio [3]: > 35.6
CCN(CC)CCOc1ccc2nc(SCc3ccccc3)n(Cc3cccs3)c(=O)c2c1 | 15.8 to 18 µM | 98.4% | selectivity ratio [4]: 21.4; inhibition [5]: 96.1%; selectivity ratio [3]: 22.2; inhibition [6]: 94%
COc1ccc(C(C)=O)cc1CSc1nc2ccc(Cl)cc2c(=O)n1Cc1cccs1 | 74.6 µM | 40.7% | 
O=c1c2cc(F)ccc2nc(SCc2ccccc2)n1Cc1cccs1 | > 100 µM | 9.53% | 
COc1ccc(C(C)=O)cc1CSc1nc2ccc(C)cc2c(=O)n1Cc1cccs1 | > 100 µM | 56.1% | 
COc1ccc(C(C)=O)cc1CSc1nc2ccccc2c(=O)n1Cc1cccs1 | 71.5 µM | 47.1% | selectivity ratio [3]: 17.6
O=c1c2cc(Cl)ccc2nc(SCc2ccccc2)n1Cc1cccs1 | > 100 µM | 16.1% | 
O=c1c2cc(I)ccc2nc(SCc2ccccc2)n1Cc1cccs1 | > 100 µM | 1.87% | 
COc1ccc(C(C)=O)cc1CSc1nc2ccc(Br)cc2c(=O)n1Cc1cccs1 | > 100 µM | 46% | 
C=C1[C@H](CO)[C@@H](O)C[C@@H]1n1cnc2c(=O)[nH]c(N)nc21 |  |  | inhibition [7]: 98.1%; inhibition [8]: 22.6%
CCN(CC)CCOc1ccc2nc(SCc3cc(C(C)=O)ccc3OC)n(Cc3cccs3)c(=O)c2c1 | 8.76 µM | 42% | 
O=c1c2cc(Br)ccc2nc(SCc2ccccc2)n1Cc1cccs1 | > 100 µM | 16.7% | 
Nc1ccn([C@@H]2CS[C@H](CO)O2)c(=O)n1 [LAMIVUDINE] | > 100 µM | 94.3% | selectivity ratio [4]: < 1; inhibition [9]: 90.7%; inhibition [10]: 17.7%; selectivity ratio [3]: > 1000
COc1ccccc1CSc1nc2ccc(O)cc2c(=O)n1Cc1cccs1 | > 100 µM | 0.59% | 
COc1ccccc1CSc1nc2ccc(I)cc2c(=O)n1Cc1cccs1 | > 100 µM | 65.9% | 
CCN(CC)CCOc1ccc2nc(SCc3ccccc3OC)n(Cc3cccs3)c(=O)c2c1 | 10.1 µM | 76% | selectivity ratio [3]: 5.25
COc1ccccc1CSc1nc2ccc(Cl)cc2c(=O)n1Cc1cccs1 | > 100 µM | 63.3% | 
Cc1ccc2nc(SCc3ccccc3)n(Cc3cccs3)c(=O)c2c1 | > 100 µM | 13.8% | 
O=c1c2ccccc2nc(SCc2ccccc2)n1Cc1cccs1 | > 100 µM | 11% | 
CN(C)CCOc1ccc2nc(SCc3ccccc3)n(Cc3cccs3)c(=O)c2c1 | 21.1 to 26.7 µM | 83.3% | selectivity ratio [4]: 14.1; inhibition [5]: 82%; selectivity ratio [3]: 13.7; inhibition [6]: 80.9%
O=c1c2cc(O)ccc2nc(SCc2ccccc2)n1Cc1cccs1 | > 100 µM | 5.62% | 
COc1ccc(C(C)=O)cc1CSc1nc2ccc(OCCN(C)C)cc2c(=O)n1Cc1cccs1 | 18 µM | 33.9% | 
COc1ccc(C(C)=O)cc1CSc1nc2ccc(I)cc2c(=O)n1Cc1cccs1 | 81.1 µM | 45.4% | 
COc1ccc(C(C)=O)cc1CSc1nc2ccc(F)cc2c(=O)n1Cc1cccs1 | 89 µM | 30.7% | 
COc1ccccc1CSc1nc2ccc(F)cc2c(=O)n1Cc1cccs1 | > 100 µM | 79.6% | selectivity ratio [3]: > 40.5
COc1ccccc1CSc1nc2ccc(OCCN(C)C)cc2c(=O)n1Cc1cccs1 | 14.7 µM | 53.9% | 
